How the values were obtained:
[1] = human gut metagenome, 24 h, 2 µM
[2] = human gut metagenome, 24 h, 2 µM; remark: listed apart in the source
[3] = human gut metagenome, 24 h, 2 µM; remark: listed apart in the source
[4] = The drug is tested on Z-005 corresponding to metagenome with ENA study accession number: PRJEB37062 and ENA sample accession number: ERS12561805 for biotransformation under anaerobic condition. The drug concentrations were measured over 9 timepoints collected between 0 and 24 hours of incubation by liquid-chromatography-coupled mass spectrometry (LC–MS); conditions: 2 µM
[5] = human gut metagenome, 24 h, 2 µM; remark: listed apart in the source
[6] = The drug is tested on WLS-073 corresponding to human gut metagenome with ENA study accession number: PRJEB37062 and ENA sample accession number: ERS12561749 for biotransformation under anaerobic condition. The drug concentrations were measured over 9 timepoints collected between 0 and 24 hours of incubation by liquid-chromatography-coupled mass spectrometry (LC–MS); conditions: 2 µM
[7] = human gut metagenome, 24 h, 2 µM; remark: listed apart in the source
[8] = The drug is tested on Z-009 corresponding to pig gut metagenome with ENA study accession number: PRJEB37062 and ENA sample accession number: ERS12561809 for biotransformation under anaerobic condition. The drug concentrations were measured over 9 timepoints collected between 0 and 24 hours of incubation by liquid-chromatography-coupled mass spectrometry (LC–MS); conditions: 2 µM
[9] = human gut metagenome, 24 h, 2 µM; remark: listed apart in the source
[10] = human gut metagenome, 24 h, 2 µM; remark: listed apart in the source
[11] = The drug is tested on Z-010 corresponding to metagenome with ENA study accession number: PRJEB37062 and ENA sample accession number: ERS12561810 for biotransformation under anaerobic condition. The drug concentrations were measured over 9 timepoints collected between 0 and 24 hours of incubation by liquid-chromatography-coupled mass spectrometry (LC–MS); conditions: 2 µM
[12] = The drug is tested on Z-027 corresponding to metagenome with ENA study accession number: PRJEB37062 and ENA sample accession number: ERS12561826 for biotransformation under anaerobic condition. The drug concentrations were measured over 9 timepoints collected between 0 and 24 hours of incubation by liquid-chromatography-coupled mass spectrometry (LC–MS); conditions: 2 µM
[13] = The drug is tested on WLS-370 corresponding to human gut metagenome with ENA study accession number: PRJEB37062 and ENA sample accession number: ERS12561793 for biotransformation under anaerobic condition. The drug concentrations were measured over 9 timepoints collected between 0 and 24 hours of incubation by liquid-chromatography-coupled mass spectrometry (LC–MS); conditions: 2 µM
[14] = human gut metagenome, 24 h, 2 µM; remark: listed apart in the source
[15] = human gut metagenome, 24 h, 2 µM; remark: listed apart in the source
[16] = The drug is tested on WLS-220 corresponding to human gut metagenome with ENA study accession number: PRJEB37062 and ENA sample accession number: ERS12561769 for biotransformation under anaerobic condition. The drug concentrations were measured over 9 timepoints collected between 0 and 24 hours of incubation by liquid-chromatography-coupled mass spectrometry (LC–MS); conditions: 2 µM
[17] = The drug is tested on Z-006 corresponding to mouse gut metagenome with ENA study accession number: PRJEB37062 and ENA sample accession number: ERS12561806 for biotransformation under anaerobic condition. The drug concentrations were measured over 9 timepoints collected between 0 and 24 hours of incubation by liquid-chromatography-coupled mass spectrometry (LC–MS); conditions: 2 µM
[18] = human gut metagenome, 24 h, 2 µM; remark: listed apart in the source
[19] = The drug is tested on Z-013 corresponding to rabbit gut metagenome with ENA study accession number: PRJEB37062 and ENA sample accession number: ERS12561813 for biotransformation under anaerobic condition. The drug concentrations were measured over 9 timepoints collected between 0 and 24 hours of incubation by liquid-chromatography-coupled mass spectrometry (LC–MS); conditions: 2 µM
[20] = The drug is tested on Z-011 corresponding to mouse gut metagenome with ENA study accession number: PRJEB37062 and ENA sample accession number: ERS12561811 for biotransformation under anaerobic condition. The drug concentrations were measured over 9 timepoints collected between 0 and 24 hours of incubation by liquid-chromatography-coupled mass spectrometry (LC–MS); conditions: 2 µM

Measured: Bacterial Biotransformation
Further: call rule not given here.

CCOC(=O)[C@H](CCc1ccccc1)N[C@H]1CCc2ccccc2N(CC(=O)O)C1=O [BENAZEPRIL]
Compound NOT metabolized: [3] | [5] | [12] | [19]
Compound metabolized: [1] | [2] | [4] | [6] | [7] | [8] | [9] | [10] | [11] | [13] | [14] | [15] | [16] | [17] | [18] | [20]

NS(=O)(=O)c1cc2c(cc1Cl)N=C(CSCc1ccccc1)NS2(=O)=O [BENZTHIAZIDE]
Compound metabolized: [1]
Compound NOT metabolized: [2] | [3] | [4] | [5] | [6] | [7] | [8] | [9] | [10] | [11] | [12] | [13] | [14] | [15] | [16] | [17] | [18] | [19] | [20]

CC(C)NCC(O)COc1ccc(COCCOC(C)C)cc1.CC(C)NCC(O)COc1ccc(COCCOC(C)C)cc1.O=C(O)/C=C/C(=O)O (stereo not given) [BISOPROLOL FUMARATE]
Compound NOT metabolized: [2] | [3] | [4] | [5] | [6] | [7] | [9] | [10] | [11] | [12] | [13] | [17] | [19]
Compound metabolized: [1] | [8] | [14] | [15] | [16] | [18] | [20]

CCCCCOC(=O)Nc1nc(=O)n([C@@H]2O[C@H](C)[C@@H](O)[C@H]2O)cc1F [CAPECITABINE]
Compound NOT metabolized: [3] | [17]
Compound metabolized: [1] | [2] | [4] | [5] | [6] | [7] | [8] | [9] | [10] | [11] | [12] | [13] | [14] | [15] | [16] | [18] | [19] | [20]

Cc1ccc(-c2cc(C(F)(F)F)nn2-c2ccc(S(N)(=O)=O)cc2)cc1 [CELECOXIB]
Compound metabolized: [1] | [5] | [6] | [9] | [10] | [13] | [14] | [16]
Compound NOT metabolized: [2] | [3] | [4] | [7] | [8] | [11] | [12] | [15] | [17] | [18] | [19] | [20]

CN1C(=O)CCS(=O)(=O)C1c1ccc(Cl)cc1 (stereo not given) [CHLORMEZANONE]
Compound metabolized: [1] | [14]
Compound NOT metabolized: [2] | [3] | [4] | [5] | [6] | [7] | [8] | [9] | [10] | [11] | [12] | [13] | [15] | [16] | [17] | [18] | [19] | [20]

Source: ChEMBL document CHEMBL5724914, “Linking interpersonal differences in gut microbiota composition and drug biotransformation activity” (2024)
